Test results from patent US11149013B2, “Crystal form of urate transporter 1 inhibitor and preparation method and use thereof” (Tianjin Institute of Pharmaceutical Research Co., Ltd., priority 2018, dated 2021).

Assays:
Assay type in all cases: physicochemical
[1] = Influencing factor test: stability to light; settings: illumination 5000 Lx·hr, open weighing bottle
Description: (§1) The HPLC conditions for the determination of the crystal form A of the compound TY706 and its raw material in the present invention were as follows: chromatographic column: C18, 5 μu, Φ4.6×150 mm, Waters Atlantis T3; mobile phase A: acetonitrile-methanol=9:1, mobile phase B: 10 mM diammonium hydrogen phosphate (pH was adjusted to 4.30±0.03 with phosphoric acid), gradient elution (Table 2); detection wavelength: 225 nm; column temperature: 35° C.; flow rate: 1.0 mL/min; sample concentration: 0.3 mg/mL; injection volume: 15 μL; solvent for dissolving: phosphate buffer (pH 7.8-8.0; prepared by dissolving 5.59 g of dipotassium hydrogen phosphate and 0.41 g of potassium dihydrogen phosphate by adding water to a volume of 1000 mL).
(§2) The sample of the crystal form A of TY706 prepared in Example 1 and the raw material for the preparation of the crystal form A were simultaneously subjected to influencing factor tests, and they were respectively placed under the conditions of illumination (5000 Lx·hr, with the weighing bottle being placed open), high heat (60° C., with the weighing bottle being placed open), and high humidity (92.5% RH, with the weighing bottle being placed open) for 14 days, and the appearance and the number and total amount of impurities (determined by HPLC) were compared with those measured on day 0, and the results are shown in Table 5-7.

[2] = Influencing factor test: stability to high heat; settings: high heat 60° C., open weighing bottle
Description: as §1, §2

[3] = Influencing factor test: stability to high humidity; settings: high humidity 92.5% RH, open weighing bottle
Description: as §1, §2

For O=C(O)CSc1nnc(Br)n1Cc1ccc(Br)c2ccccc12 [Crystal form A of TY706], the Appearance ([1]; day 0) was “White solid”, the Number of impurities ([1]; day 0, HPLC) was 4 and the “Total amount of impurities” value ([1]; day 0, HPLC) was 0.24%. The Appearance ([1]; day 7) was “White solid”, the Number of impurities ([1]; day 7, HPLC) was 6 and the “Total amount of impurities” value ([1]; day 7, HPLC) was 0.28%. For the same molecule, the Appearance ([1]; day 14) was “White solid”, the Number of impurities ([1]; day 14, HPLC) was 7 and the “Total amount of impurities” value ([1]; day 14, HPLC) was 0.41%. The Appearance ([2]; day 0) was “White solid”, the Number of impurities ([2]; day 0, HPLC) was 4 and the “Total amount of impurities” value ([2]; day 0, HPLC) was 0.24%. The Appearance ([2]; day 7) was “White solid”, the Number of impurities ([2]; day 7, HPLC) was 4 and the “Total amount of impurities” value ([2]; day 7, HPLC) was 0.25%. For the same molecule, the Appearance ([2]; day 14) was “White solid”, the Number of impurities ([2]; day 14, HPLC) was 5 and the “Total amount of impurities” value ([2]; day 14, HPLC) was 0.26%. The Appearance ([3]; day 0) was “White solid”, the Number of impurities ([3]; day 0, HPLC) was 4 and the “Total amount of impurities” value ([3]; day 0, HPLC) was 0.24%. The Appearance ([3]; day 7) was “White solid”, the Number of impurities ([3]; day 7, HPLC) was 4 and the “Total amount of impurities” value ([3]; day 7, HPLC) was 0.24%. The Appearance ([3]; day 14) was “White solid”, the Number of impurities ([3]; day 14, HPLC) was 4 and the “Total amount of impurities” value ([3]; day 14, HPLC) was 0.25%.
For O=C(O)CSc1nnc(Br)n1Cc1ccc(Br)c2ccccc12 [TY706 raw material], the Appearance ([1]; day 0) was “White solid”, the Number of impurities ([1]; day 0, HPLC) was 11 and the “Total amount of impurities” value ([1]; day 0, HPLC) was 0.69%. The Appearance ([1]; day 7) was “White solid”, the Number of impurities ([1]; day 7, HPLC) was 13 and the “Total amount of impurities” value ([1]; day 7, HPLC) was 1.13%. For the same molecule, the Appearance ([1]; day 14) was “Light yellow”, the Number of impurities ([1]; day 14, HPLC) was 25 and the “Total amount of impurities” value ([1]; day 14, HPLC) was 2.68%. The Appearance ([2]; day 0) was “White solid”, the Number of impurities ([2]; day 0, HPLC) was 11 and the “Total amount of impurities” value ([2]; day 0, HPLC) was 0.69%. The Appearance ([2]; day 7) was “White solid”, the Number of impurities ([2]; day 7, HPLC) was 12 and the “Total amount of impurities” value ([2]; day 7, HPLC) was 0.78%. The Appearance ([2]; day 14) was “White solid”, the Number of impurities ([2]; day 14, HPLC) was 15 and the “Total amount of impurities” value ([2]; day 14, HPLC) was 1.19%. For the same molecule, the Appearance ([3]; day 0) was “White solid”, the Number of impurities ([3]; day 0, HPLC) was 11 and the “Total amount of impurities” value ([3]; day 0, HPLC) was 0.69%. For the same molecule, the Appearance ([3]; day 7) was “White solid”, the Number of impurities ([3]; day 7, HPLC) was 12 and the “Total amount of impurities” value ([3]; day 7, HPLC) was 0.72%. The Appearance ([3]; day 14) was “White solid”, the Number of impurities ([3]; day 14, HPLC) was 14 and the “Total amount of impurities” value ([3]; day 14, HPLC) was 0.84%.
